This note sets out measurements from PubChem BioAssay AID1645865 (Buhrlage Lab, Dana-Farber Cancer Institute and Novartis …, 2021).

This assay concerns the target Ubiquitin carboxyl-terminal hydrolase 30 (Homo sapiens) (UniProt Q70CQ3). As to the kind of experiment: ubiquitin-specific protease 30 DUB inhibitors, concentration-effect, biochemical, validation of primary actives (AID 1645865). Particulars: purified USP30, Ub-rhodamine cleavage, fluorescence, 2 h.

Each structure is given as a SMILES string. Calls of active or inactive are those of the source.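 Rule for the calls: active = maximal inhibition of the USP30 enzyme reaching 30% or more across the dose series; inactive = the rest.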

Sequence of Ubiquitin carboxyl-terminal hydrolase 30 (Homo sapiens) (Q70CQ3 whole entry, looked up): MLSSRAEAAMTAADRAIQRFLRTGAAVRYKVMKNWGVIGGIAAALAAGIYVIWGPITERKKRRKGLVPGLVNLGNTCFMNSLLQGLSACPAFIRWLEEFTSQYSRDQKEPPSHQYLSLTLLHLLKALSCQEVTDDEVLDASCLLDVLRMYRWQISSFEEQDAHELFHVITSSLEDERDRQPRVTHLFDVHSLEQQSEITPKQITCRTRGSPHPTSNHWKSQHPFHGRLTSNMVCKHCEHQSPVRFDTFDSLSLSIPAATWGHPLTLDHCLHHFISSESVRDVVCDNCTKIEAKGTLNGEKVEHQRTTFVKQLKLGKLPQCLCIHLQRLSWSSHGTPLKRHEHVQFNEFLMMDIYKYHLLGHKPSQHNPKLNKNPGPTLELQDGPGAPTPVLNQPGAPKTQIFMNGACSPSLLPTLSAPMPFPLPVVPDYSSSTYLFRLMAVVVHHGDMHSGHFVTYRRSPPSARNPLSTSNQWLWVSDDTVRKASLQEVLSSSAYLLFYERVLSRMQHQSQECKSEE

The IC50 is the concentration that gives 50% inhibition. Regarding `O=C(CSc1nnc(CNC(=O)c2ccccc2F)o1)Nc1ccc(OC(F)(F)F)cc1`, the IC50 was 26.5 µM.
The figure for `Cc1ccc(NC(=O)c2cc(-c3cccnc3)n(-c3ccccc3)n2)nc1` is 32.3 µM; for `O=S(=O)(Cc1nnc(-c2ccccc2C(F)(F)F)o1)c1ccc(Cl)cc1` it is > 50 µM (inactive).
As for `CC(C)Cn1cc(OC(=O)c2ccc(F)cc2)c2c1nc(-c1ccc(F)cc1)n1c3ccccc3nc21`, the figure is > 50 µM (inactive); as for `CCN(CC)c1nc(F)c2c(c1F)S(=O)(=O)CCN2Cc1cccnc1`, > 50 µM (inactive).
The figure for `CC(=O)c1oc2nc3c(c(-c4ccc(Cl)cc4)c2c1N)CCc1ccccc1-3` is > 50 µM (inactive).
`NC(=O)c1nc(-c2cccc(F)c2)nc2c1[nH]c(=O)n2C1CCCCC1`: the IC50 is 3.78 µM.
Consider `c1cnc(-c2n[nH]c(C3CCN(C4CCNC4)CC3)n2)cn1` (stereo not drawn), for which the IC50 was > 50 µM (inactive).
As for `O=C(Nc1nc2c(s1)COCC2)c1cc(-c2ccco2)[nH]n1`, the figure is > 50 µM (inactive).
As for `O=c1c2ccccc2c(-c2nc(-c3ccncc3)no2)cn1-c1ccccc1`, the figure is 2.54 µM.
Turning to `FC(F)(F)c1cccc(Nc2nnc(-c3cccnc3)s2)c1`, the IC50 was 2.76 µM.
Consider `Cc1ccc2[nH]c(=O)c(CN(CC3CCCO3)S(=O)(=O)c3ccccc3)cc2c1` (stereo not drawn), for which the IC50 was 39.4 µM.
The figure for `N#Cc1ccc(Cl)cc1NC(=O)COc1cccnc1[N+](=O)[O-]` is > 50 µM (inactive).
The figure for `CC(C)(C)n1nc(C2CC2)c(Br)c1NC(=O)c1ccccc1F` is 34.1 µM; for `COc1cc(Cl)ccc1Oc1ncnc2sc(C)c(C)c12` it is > 50 µM (inactive).
As for `COc1ccc(S(=O)(=O)N(C)Cc2cccs2)cc1OC`, the figure is > 50 µM (inactive); as for `O=C(/C=C/c1c(F)cccc1Cl)N1CCc2ccccc2C1`, > 50 µM (inactive).
For `Cc1c(-c2ccccc2)oc2c(C(=O)OCC(=O)Nc3ccccc3F)cccc2c1=O`, the IC50 is > 50 µM (inactive).
As for `Cc1ccc(Nc2nc(Nc3cccc(Cl)c3)nc3nccnc23)cc1`, the figure is > 50 µM (inactive); as for `Cc1ccc(NC(=O)C2CCN(c3cncnc3N3CCCC3)CC2)cc1`, > 50 µM (inactive); as for `Cc1ccccc1NC(=O)Cn1c(N2CCOCC2)nc2cc(C)n(C)c2c1=O`, 17.9 µM.
The figure for `CN(C)S(=O)(=O)N1CCCC2(C1)Nc1cccnc1NC2=NC1CCCC1` (stereo not drawn) is > 50 µM (inactive); for `O=C(Cc1cccs1)Nc1cc(F)c2nc(N3CCOCC3)ccc2c1` it is > 50 µM (inactive).
On to `CCOC(=O)c1cc2c(ccn2C)n1Cc1cccc2ccccc12`, for which the IC50 is > 50 µM (inactive).
In the case of `Cc1nc2c3ccccc3nc(NCc3ccc4c(c3)OCO4)n2n1`, the IC50 is 32.9 µM.
As for `COc1ccc(C(C(=O)NC2CCCCC2)N(C(=O)CCCC(=O)Nc2ccccn2)c2ccccc2C)cc1` (stereo not drawn), the figure is 19.3 µM.
`COc1cccc2cc(C(=O)Nc3ccc4c(c3)OCCO4)oc12`: the IC50 was > 50 µM (inactive).
Regarding `CC(C(=O)NCc1ccc(F)cc1)n1cccc1C(=O)c1ccccc1` (stereo not drawn), the IC50 is > 50 µM (inactive).
As for `Cc1ccc(C(=O)N2CCCC3(C2)Nc2cccnc2NC3=NC2CCCC2)s1` (stereo not drawn), the figure is > 50 µM (inactive).
As for `Clc1cc2nc(N3CCN(c4ccccn4)CC3)c3nncn3c2cc1Cl`, the figure is 2.16 µM; as for `CCCNC(=O)c1ccn(-c2ccc3ccc(-c4cnn(C)c4)cn23)n1`, > 50 µM (inactive).
The figure for `Cc1cc(C(=O)CN2CCN(Cc3ccc4c(c3)OCO4)CC2)c(C)n1-c1ccc2c(c1)OCO2` is > 50 µM (inactive); for `c1ccc(-n2nnc(-c3noc(-c4ccccn4)n3)c2-c2ccncc2)cc1` it is 25.4 µM; for `Cn1c(=O)sc2cc(NC(=O)c3ccc(Br)cc3)ccc21` it is 2.21 µM.
Consider `COC(=O)c1ccc(NC(=O)CSc2nnc(-c3ccc(O)cc3)n2Cc2ccco2)cc1`, for which the IC50 is 4.38 µM.
In the case of `CC1=C(C)C(N(c2ccccc2)c2ccccc2)N(CCC(C)C)C1=O` (stereo not drawn), the IC50 is 36.1 µM.
As for `COc1ccccc1CNC(=O)CCCCn1c(=O)c2ccccc2n(Cc2ccccc2C#N)c1=O`, the figure is 15.1 µM.
Regarding `N#Cc1cccc(NC(=O)Cn2cccc(-c3nc(-c4ccccc4)no3)c2=O)c1`, the IC50 is > 50 µM (inactive).
In the case of `Cc1cc(C)n(-c2ccc(C(=O)NCc3ccc(F)cc3)cn2)n1`, the IC50 was 37.4 µM.
Take `O=C(COc1ccc(F)cc1)Nc1cnc(-c2ccc(Cl)cc2)nc1`: the IC50 is 38 µM.
As for `Cc1ccc2c(c1)[C@]1(C(=O)N2)[C@@H](C(=O)c2ccccc2)[C@]2(C(=O)Nc3ccccc32)[C@@H]2CCCN21`, the figure is 35.1 µM; as for `CC(C)(C)c1ccc(C(=O)Nc2ccc(Cn3cncn3)cc2)cc1`, > 50 µM (inactive).
The figure for `COc1ccc(Nc2nc3c(S(=O)(=O)c4ccc(C)cc4)nnn3c3ccsc23)c(OC)c1` is 0.401 µM.
As for `COc1cc(NC(=O)Cn2nc(-c3ccc(F)cc3)ccc2=O)ccc1-n1cnnn1`, the figure is 1.74 µM; as for `Cc1ccccc1NC(=O)c1cc(S(=O)(=O)N2CCCCCC2)ccc1Cl`, 23.8 µM; as for `COc1ccc(C2CC(c3ccc(C)cc3)N(C(=O)C3CC3)c3ncnn32)cc1` (stereo not drawn), > 50 µM (inactive).
In the case of `O=C(CCn1c(=O)c2sccc2n(CC(=O)OCc2ccccc2)c1=O)NCc1ccc2c(c1)OCO2`, the IC50 was 22.9 µM.
As for `COc1cccc(NC(=O)Cc2sc(Nc3cc(C)cc(C)c3)nc2O)c1`, the figure is 23 µM; as for `Cc1ccccc1NC(=O)Nc1ccccc1OCc1cc(=O)n2cccc(C)c2n1`, 0.687 µM.
As for `O=C(NCc1nc(-c2ccc3c(c2)[nH]c(=O)n3C2CCCC2)no1)c1ccccc1`, the figure is > 50 µM (inactive); as for `N#Cc1ccccc1OCc1csc(-c2ccccc2)n1`, > 50 µM (inactive).
The figure for `COc1cccc(CNC(=O)c2ccc3c(c2)NC(=O)C2CCCN32)c1OC` (stereo not drawn) is > 50 µM (inactive).
For the compound `O=C(O)c1ccccc1C(=O)Nc1ccc(SC(C(=O)Nc2ccccc2)c2ccccc2)cc1` (stereo not drawn), the IC50 was > 50 µM (inactive).
The figure for `CC(=O)Nc1ccc(S(=O)(=O)N2CCCC(C(=O)Nc3cccc4ccccc34)C2)cc1` (stereo not drawn) is 25.5 µM; for `COc1ccc2c(C)c(CC(=O)N3CCC[C@H]3C(=O)O)c(=O)oc2c1C` it is 45 µM; for `COc1ccc(-c2cc3c(=O)n(CC(=O)Nc4ccccc4Cl)ccn3n2)cc1` it is 4.23 µM.
As for `O=C(CSc1ccc(-c2cccc([N+](=O)[O-])c2)nn1)Nc1cccc(F)c1`, the figure is 2.11 µM.
As for `CC1=C(c2ccc(C)c(C)c2)S(=O)(=O)NC1=NCC(=O)NCCCc1ccccc1`, the figure is 19.7 µM; as for `Cc1cc(NC(=O)COc2ccc3oc4ccccc4c3c2)no1`, > 50 µM (inactive).
With `COc1ccccc1C(=O)N1CCc2[nH]c3ccc(F)cc3c2C1`, the IC50 was > 50 µM (inactive).
On to `COc1ccc(-c2nc(C)c(C(=O)NCc3ccc(S(N)(=O)=O)cc3)s2)cc1`, for which the IC50 is > 50 µM (inactive).
The figure for `N#Cc1ccccc1COC(=O)c1ccc2ccccc2n1` is > 50 µM (inactive); for `CN(CCCNC(=O)c1cccc2c1SCCC2=O)c1ccccc1` it is > 50 µM (inactive); for `COCCNC(=O)c1cc(-c2cn(-c3ccccn3)c(C)n2)n2ccccc12` it is > 50 µM (inactive).
The figure for `O=S(=O)(c1cccc(F)c1)N1CCc2nc3ccccc3n2CC1` is 3.76 µM; for `Cc1ccc(CNC(=O)CCCn2c(=O)c3sccc3n(CC(=O)Nc3cc(Cl)ccc3C)c2=O)cc1` it is 2.13 µM; for `CSc1cccc(NC(=O)COc2cccc3ccccc23)c1` it is 1.46 µM.
As for `CCOC(=O)C1C(c2ccc(Br)cc2)C2(C(=O)c3ccccc3C2=O)C2C=Cc3ccccc3N12` (stereo not drawn), the figure is > 50 µM (inactive).
On to `Cc1cnnn1-c1ccc(C(=O)Nc2cc(Cl)ccc2Cl)cc1`, for which the IC50 is 20.7 µM.
The figure for `COc1c(C)c(C(O)C(C)O)c2[nH]c3ccc(CC=C(C)C)cc3c2c1O` (stereo not drawn) is 27.4 µM.
The figure for `Cc1ccc(NCc2cc3c(C(C)(C)C)nn(-c4ccc(Cl)cc4)c3[nH]c2=O)cc1` is > 50 µM (inactive); for `CCOC(=O)[C@@H]1[C@@H](c2ccccc2)CN2CCN(C(=O)c3cnccn3)C[C@H]12` it is > 50 µM (inactive); for `CSc1ncccc1C(=O)NC1(O)C(=O)c2ccccc2C1=O` it is 29.5 µM.
The figure for `O=C1/C(=C/c2cn(-c3ccccc3)nc2-c2ccc3c(c2)OCCO3)Cc2ccccc21` is > 50 µM (inactive).
For `Nc1ncnc(SCc2ccc(Cl)cc2)n1`, the IC50 is 17.1 µM.
Consider `O=C(c1cc(-c2ccncc2)n[nH]1)N1CCC(C(=O)N2CC=C(c3ccccc3)CC2)CC1`, for which the IC50 is 33.2 µM.
Turning to `CSc1cccc(C(=O)Nc2ccc(-c3nc4ccccc4[nH]3)cc2)c1`, the IC50 is 2.89 µM.
The figure for `CC1CCN(c2nc(F)c3c(c2F)S(=O)(=O)CCN3Cc2cccnc2)CC1` is > 50 µM (inactive); for `COC(=O)c1ccc(Cn2cnc3ccc(F)cc3c2=O)o1` it is > 50 µM (inactive).
As for `O=C(NCc1ccncc1)C1CCN(c2cncnc2N2CCCCC2)CC1`, the figure is > 50 µM (inactive); as for `CC1OC2CC(O)C1(O)C1=C2C(=O)c2c(O)c3c(c(O)c2C1=O)[C@H](C)O[C@H]1CC(=O)O[C@@H]31` (stereo partly drawn), > 50 µM (inactive); as for `CC(C)(C)C(=O)Nc1ccc(SCc2nnc(-c3ccccc3)o2)cc1`, > 50 µM (inactive).
For `COc1ccc(NC(=O)C2Oc3ccc(C)cc3NC2=O)cc1Cl` (stereo not drawn), the IC50 is 19.5 µM.
As for `CCOc1ccc(CCNC(=O)CCC(=O)Nc2ccc3nc(N4CCN(C)CC4)cc(C)c3c2)cc1OCC`, the figure is > 50 µM (inactive).
The figure for `COc1ccc(CCNC(=O)c2cc(C3CC3)nc3c2cnn3C(C)C)cc1` is > 50 µM (inactive); for `Cc1ccc2[nH]c3c(=O)n(CC4CCCO4)cnc3c2c1` (stereo not drawn) it is 17.9 µM; for `COc1ccc(CNC(=O)CN2C(=O)CC(c3ccccc3)=Nc3ccccc32)cc1` it is 14.6 µM.
Take `COc1ccc(OC)c(-c2cn3ccn(-c4ccc5c(c4)CCC5)c(=O)c3n2)c1`: the IC50 is > 50 µM (inactive).
